Measurements taken from patent US10548906B2, “Methods of promoting hepatic regeneration” (Intercept Pharmaceuticals, Inc., priority 2015, dated 2020).
Entries after “also recorded” stand apart in the source; their conditions may differ.

What was measured:
[1] = test system: New Zealand White rabbits; assay: Hepatobiliary scintigraphy, 99mTc-mebrofenin uptake after PVE (Example 5); type: in vivo, rabbit
Procedure: Liver function was assessed using hepatobiliary scintigraphy (HBS) with ^99mTc-labeled (2,4,6 trimethyl-3-bromo) iminodiacetic acid (^99mTc-mebrofenin, Bridatec, GE Healthcare, Eindhoven, the Netherlands) at days −7, −1, +3 and +7. Rabbits (n=6 per treatment group) were anesthetized and positioned on an imaging table with the liver and heart positioned under a large field-of-view single photon emission computed tomography (SPECT/CT) camera (Siemens Symbia T16). Regions of interest were drawn around the left ventricle for blood pool readings, around the entire liver for total liver uptake, and around the caudal liver lobe (FIG. 10; the yellow region of interest (ROI) delineates the left ventricle, the red ROI the total liver and the pink ROI the caudal liver lobe; a marked decrease in cranial liver lobe activity and increase in caudal liver lobe activity was seen following portal vein embolization.). Per rabbit, a dose of 50 MBq ^99mTc-mebrofenin was administered via a lateral ear vein directly before the start of acquisition.
The geometric mean dataset of the anterior and posterior cameras was used for analysis. Hepatic ^99mTc-mebrofenin uptake rate was calculated as an increase of ^99mTc-mebrofenin uptake over two minutes, corrected for perfusion. Total liver uptake was represented by the total hepatic ^99mTc-mebrofenin uptake rate, and calculated as a percentage of the injected dose per minute. The fractional ^99mTc-mebrofenin uptake rate was calculated for the caudal liver lobe, based of distribution of segmental activity and was corrected for baseline measurements at t=−7 days.

[2] = test system: Ki67-positive hepatocytes; assay: Ki67 staining of liver sections, hepatocyte proliferation after PVE (Example 5); type: in vivo, rabbit
Procedure: Liver tissue (left lateral and caudal lobes) was fixed in buffered formalin for 48 h, and subsequently dehydrated and embedded in paraffin. Four-micron sections of liver tissue were cut and stained with standard hematoxylin and eosin stain. Sections were scored for lobular and portal inflammation according to Table 1. Additionally, liver sections were stained with Ki67 antibodies to quantify hepatocyte proliferation, and hematoxylin counterstain as described in detail previously (van der Loos C M, et al. J Histochern Cytochern 2013; 61(1):11-8; Marsman H A, et al. Br J Surg 2013; 100(5):674-83). Ki67-positive hepatocytes were counted in a total of five high power fields per animal, by a hepatopathologist (JV) blinded to the group allocation. Liver histology was assessed at day 3 and 7 for n=6 per treatment group.

Fxr = assay: qRT-PCR of proliferation-, Fxr- and bile acid homeostasis-related genes in liver and ileum of rBDL rats (Example 6); type: in vivo, rat
Procedure: Transcriptional analysis was performed [Olthof 2015]. Liver samples were homogenized with a MagNA Lyser and total RNA was extracted with the High Pure RNA Tissue Kit (both from Roche Applied Sciences, Penzberg, Germany). One μg of RNA was reverse transcribed to cDNA using the SensiFAST cDNA Synthesis Kit (Bioline, London, UK) according to manufacturer's instructions. Quantitative reverse transcriptase polymerase chain reaction was performed on a LightCycler 480 (Roche, Basel, Switzerland) using SensiFAST SYBR No-ROX mix (Bioline). Fluorescence data was processed and analyzed and normalized to hypoxanthine-guanine phosphoribosyltransferase (Hprt) for ileum samples, and the geometric mean of ubiquitin C (Ubc) and beta-2-microglobulin (B2m) for liver samples. […] Primers were designed using NCBI Primer Blast (http://www.ncbi.nlm.nih.gov/tools/primer-blast/) to span an intron or exon-exon junction and prevent amplification of residual genomic DNA (Table 2). Melting curve analysis and agarose gel electrophoresis were used to validate primer specificity.

Wistar rats = assay: Bile volume and HPLC bile acid analysis in rBDL rats prior to PHx (Example 6); type: in vivo, rat
Procedure: At baseline (i.e., directly before PHx) and one to five days after PHx, animals were euthanized under isoflurane anesthesia by exsanguination. Blood samples were collected from the caval vein in heparin-anticoagulated vacutainers (BD, Franklin Lakes, N.J.) and centrifuged for 10 min (3000×g, 4° C.). In rBDL animals sacrificed at baseline, bile was aspirated with a syringe from the dilated extrahepatic bile duct, weighed, and stored at −80° C. The liver and ileum were excised, weighed, loafed, and either fixed in a 10% (vol/vol) neutralized formalin solution (J. T. Baker, Center Valley, Pa.), snap-frozen in liquid nitrogen and stored at −80° C., or collected in RNAlater (Qiagen, Venlo, the Netherlands) and stored at −20° C. Liver regrowth was calculated from the regenerated liver mass, and was expressed as percentage of total liver mass prior to PHx. The projected remnant liver mass was calculated using the weight of the resected liver segments, which represent 70% of the total liver mass. Dry liver weights were measured to correct for hepatic water content [Kloek 2010a].
Bile acids were separated and quantified by reverse-phase high-performance liquid chromatography (HPLC) [Lionarons 2016]. Bile or plasma samples (20 μL) were deproteinated by the addition of 5 volumes of acetonitrile. Following centrifugation (10 min at 20,000×g), solvent was evaporated from supernatants and bile salts were solubilized in 200 μL of 25% methanol. For liver homogenates, 100 mg liver tissue was sonicated for 30-90 s in 500 μL of water. One mL of acetonitrile was added for protein precipitation. Samples were subsequently centrifuged at 20,000×g for 10 min, after which the supernatant was used for analysis. Results were corrected for homogenate protein content. One hundred μL of sample was applied to a Hypersil C18 HPLC column (Thermo Scientific, Waltham, Mass.) operated at 20° C. […] Detection was done using a Nano Quantity Analyte Detector QT-500 (Quant Technologies, Blaine, Minn.). Bile acids were quantified using a separate calibration curve per species. […]

[3] = prior to PHx, vs untreated rBDL
[4] = after seven days of OCA treatment

CC[C@H]1[C@@H](O)[C@@H]2[C@H](CC[C@]3(C)[C@@H]([C@H](C)CCC(=O)O)CC[C@@H]23)[C@@]2(C)CC[C@@H](O)C[C@@H]12 [Compound 1, 3α,7α-dihydroxy-6α-ethyl-5β-cholanic acid]
increase in contribution of caudal liver lobe (CLF share) to total liver mebrofenin uptake ([1]; 3 days after PVE): 44.5±5.4% | increase in caudal liver function relative to vehicle ([1]; day +3): 1.2 fold | total liver uptake of mebrofenin ([1]; days −1, +3, +7, N=6): remained stable in both groups | number of Ki67-positive hepatocytes relative to vehicle ([2]; 3 days after PVE): 1.6 fold | Ki67-positive hepatocytes vs vehicle ([2]; day +3): Increased numbers | hepatic Bsep expression, upregulation (Fxr; baseline): ~8 fold | hepatic Mrp4 expression (Fxr; baseline): upregulated | hepatic Ntcp expression (Fxr; baseline): mildly upregulated | hepatic Ostβ expression (Fxr; baseline): upregulated | hepatocyte Cyp7a1 mRNA level (Fxr; baseline): did not alter | hepatocyte Shp mRNA level (Fxr; baseline): did not alter | hepatic Mrp3 expression (Fxr; baseline, vs untreated rBDL): more robust induction | liver Fxr mRNA (Fxr; day 1 post-PHx): slight decrease | hepatic Foxm1 expression (Fxr; during liver regeneration after PHx): did not change | hepatic Shp transcript levels relative to untreated rBDL and control rats (Fxr; first two days after PHx): high transcript levels | hepatic Fgfr4 transcript level (Fxr; prior to / on the day of PHx, listed as OCA): markedly downregulated | hepatic Stat3 expression (Fxr; prior to PHx): considerably upregulated | ileal Fxr expression (Fxr; prior to PHx): minor downregulation | ileal Shp expression (Fxr; prior to PHx): marked upregulation | ileal Fgf15 transcription, upregulation (Fxr; prior to PHx, rBDL rats): ~20 fold | hepatic expression of Foxm1 (Fxr; [3]): comparable | hepatic expression of Fxr (Fxr; [3]): comparable | hepatic expression of Ccnd1 (CyclinD1) (Fxr; prior to PHx, vs untreated rBDL or non-cholestatic animals): more pronounced | hepatic Fgfr4 expression (Fxr; regrowth phase after PHx): remained low | bile retrieved from the extrahepatic bile duct (Wistar rats; [4]): substantial increase | biliary BA output (Wistar rats; [4]): elevated | hepatic BA load / content (Wistar rats; prior to PHx, rBDL, listed as OCA): reduction; also recorded: effectively counteracted
